Laboratory results reported in patent US20030198617A1, “Pharmaceutical tryptophan containing dipeptide compositions and methods of use thereof” (priority 1993, published 2003).
Marks after values point to notes of the source that are not given here.

What was measured:
[1] = tested on: tropical malaria; assay: Relapsing tropical malaria; format: in vivo, human
Method: Patients are studied who have relapsing forms of tropical malaria, moderate to severe, and severe cases with 21 patients in the control group. Ile-Trp is administered at 100 μg single daily doses Im or intranasally for 5-10 days.
A total of 33 patients were studied with patients who had relapsing forms of tropical malaria, moderate to severe, and severe cases with 21 patients in the control group.

[2] = Psoriasis study (Example 108); format: in vivo, human; conditions: during treatment
Method: A comparative study of immunological, coagulation, and acute phase protein parameters was conducted on 30 patients with disseminated forms of psoriasis on normal treatment. Twenty-seven patients had widespread lesions of the smooth skin and scalp; two had psoriatic erythroderma. The period of illness in the majority of those examined exceeded 5 years. In two persons the nail plates were involved in the form of a “thimble” symptom.
Patients were treated under identical conditions and received therapy of vitamins B12, B6, and A, folic acid, pyrogens, sedatives, and desensitizing preparations. Salidol ointment and 3-5% sulfur-salicylic ointments were used locally.
Basic immunological and coagulation assays were conducted on all patients. The findings obtained were compared with the results of investigations done on healthy people between the ages of 18-40 years. […] At the same time, a drop is noted in the quantity of T-lymphocytes, a decrease in the level of T-helpers and suppressors, and a growth in the concentrations of IgA, M, and to a lesser degree, IgG.

[3] = Blood parameters of Chernobyl victims after 3 years of treatment; format: in vivo, human; conditions: after therapy, IM862
Description: Blood parameters after 3 years of such treatment were restored to the statistical norm prior to their exposure to the radiation.

[4] = Pediatric purulent maxillary sinusitis, local IM862; format: in vivo, human; conditions: for B-lymphocytes % / B-lymphocytes abs. / Immune complexes / Leukocytes, abs / Lymphocytes % / Lymphocytes, abs / O-lymphocytes % / O-lymphocytes abs. / T-lymphocytes % / T-lymphocytes abs. / Lysozyme: after treatment c IM862
[5] = Immune status in early terms after irradiation; format: in vivo, human; conditions: after IM862 therapy
Method: The patients described in Example 42 were tested for blood parameters the first few days after exposure to the radiation of the Chernobyl accident. It could be seen from Table 3 below that response to the treatment was observed even after a few weeks of treatment.

[6] = Infected patients with icterus (Example 95); format: in vivo, human; conditions: IM862 100 μg 5-10 days, 48 patients
Description: The hematological and immunological indices were normalized.

[7] = Chronic prostatitis, clinical result and immunological examination
[8] = acute purulent maxillary sinusitis
[9] = chronic purulent maxillary sinusitis and Highmore ethmoiditis
[10] = second group, after IM862 treatment
[11] = 34 chronic prostatitis patients
[12] = after treatment 100 μg i.m. for 5 days
[13] = elevated in 1 patient, after treatment
[14] = initial level lowered n = 14, after treatment
[15] = normal in 34 patients, after treatment

## Ile-Trp
[1]; Ile-Trp 100 μg 5-10 days
  clinical effect: reduction of hepatolineal syndrome

## Glu-Trp [IM862]
[2]
  clinical status and immunological parameters: improvement in clinical status and normalization of immunological parameters
[3]
  B-Ig+, %: 11.0 ± 0.3%
  B-Ig+, abs: 0.23 ± 0.04 10^9/l
  B-IgA+, %: 1.9 ± 0.3%
  B-IgA+, abs: 0.04 ± 0.002 10^9/l
  B-IgG+, %: 4.8 ± 0.5%
  B-IgG+, abs: 0.09 ± 0.007 10^9/l
  B-IgM+, %: 4.1 ± 0.6 %
  B-IgM+, abs: 0.12 ± 0.003 10^9/l
  CD2-DR+, &: 32 ± 3 &
  CD2-DR+, abs: 0.66 ± 0.10** 10^9/l
  CD3, %: 59.2 ± 2.1 %
  CD3, abs: 1.21 ± 0.15 10^9/l
  CD4, %: 36.2 ± 1.7%
  CD4, abs: 0.74 ± 0.08 10^9/l
  CD8, %: 23.2 ± 2.1 %
  CD8, abs: 0.48 ± 0.07** 10^9/l
  IMI, %: 75 ± 6 %
  IgA: 1.2 ± 0.4 g/L
  IgG: 10.9 ± 1.3 g/L
  IgM: 1.06 ± 0.06 g/L
  Leukocytes, abs: 5.6 ± 0.4 10^9/l
  Lymphocytes, abs: 2.1 ± 0.3 10^9/l
  T4/T8: 1.58 ± 0.04
[4]; [8]
  B-lymphocytes %: 21.9 ± 2.1%
  B-lymphocytes abs.: 778.0 ± 89.9
  Immune complexes: 113.3 ± 15.3
  Leukocytes, abs: 7200.0 ± 234.5
  Lymphocytes %: 44.7 ± 1.7%
  Lymphocytes, abs: 3281.3 ± 235.0
  O-lymphocytes %: 34.3 ± 2.4%
  O-lymphocytes abs.: 1082.0 ± 21.0
  T-lymphocytes %: 41.8 ± 1.2%
  T-lymphocytes abs.: 1420.3 ± 131.6
[4]; acute purulent maxillary sinusitis, outwash from sinuses
  Lysozyme: 45.0 ± 5.9
[4]; [9]
  B-lymphocytes %: 20.7 ± 0.7%
  B-lymphocytes abs.: 562.0 ± 38.1
  Immune complexes: 90.8 ± 10.0
  Leukocytes, abs: 6650.0 ± 262.2
  Lymphocytes %: 41.5 ± 2.6%
  Lymphocytes, abs: 2761.8 ± 212.6
  Lysozyme: 52.4 ± 4.1
  O-lymphocytes %: 37.4 ± 1.9%
  O-lymphocytes abs.: 1052.5 ± 109.3
  T-lymphocytes %: 41.8 ± 1.0%
  T-lymphocytes abs.: 1109.8 ± 74.1
[4]; first group
  time until improvement was noted: 2 to 3 days
[4]; first group (acute and subacute)
  average hospital stay: 9.2 days
[4]; first group, end of treatment
  quantity of crystallization centers in irrigated fluid: 30-50
[4]; first group, in 7-9 days of treatment
  cessation of exudation, number of patients: 3 patients
[4]; first group, on the 6th day of treatment
  cessation of exudation, number of patients: 5 patients
[4]; second group
  nasal breathing and general sense of wellness normalized, number of patients: 38 patients
[4]; second group (chronic)
  average hospital stay: 8 days
[4]; [10]
  immunoglobulin M remained elevated, number of patients: 24 patients
  serum immunoglobulin A normalized, number of patients: 10 patients
  serum immunoglobulin G normalized, number of patients: 6 patients
[4]; second group, at 3-4 days of treatment vs second 24-hour period
  increase in exudation from the affected sinuses: 10-15%
[4]; second group, control crystallograms
  quantity of crystallization centers in irrigated fluid: 50-60
[4]; second group, following 4-5 days of treatment
  disappearance of edema of the nasal mucosa, number of patients: 32 patients
[4]; second group, in 3-4 days
  exudate attained a mucous character, number of patients: 27 patients
[4]; second group, in 4-6 days
  cessation of exudation, number of patients: 18 patients
[4]; second group, in 5-6 days
  exudate attained a mucous character, number of patients: 13 patients
[4]; second group, in 7-9 days
  cessation of exudation, number of patients: 20 patients
  exudate attained a mucous character, number of patients: two
[4]; second group, in 10-14 days
  cessation of exudation, number of patients: 4 patients
[4]; various forms of paranasal sinusitis
  therapeutic action during localized use: normalization of nasal breathing, decrease in nasal cavity mucosal edema, cessation of exudation from the involved sinuses
[5]
  C3: 0.68 ± 0.04 g/L
  CD2, %: 50.9 ± 2.4%
  CD2, abs: 1.13 ± 0.07** 10^9/l
  CD2-DR+, %: 31 ± 3 %
  CD2-DR+, abs: 0.69 ± 0.08** 10^9/l
  CD19, %: 30.5 ± 1.9 %
  CD19, abs: 0.68 ± 0.04** 10^9/l
  E-RFC, %: 23.4 ± 2.6%
  IgA: 1.11 ± 0.09 g/L
  IgG: 9.2 ± 0.7 g/L
  IgM: 0.58 ± 0.10 g/L
  LMI with ConA, %: 60 ± 7 %
  Leukocytes, abs: 6.4 ± 0.8** 10^9/l
  Lymphocytes, abs: 2.27 ± 0.16** 10^9/l
[6]
  clinical effect: normalization of fever
[1]; IM862 100 μg 5-10 days, 33 patients
  clinical effect: reduction of hepatolineal syndrome
[7]; [11]
  good result, share of patients: 76.5%
  satisfactory result, number of patients: 8 patients
[7]; 34 chronic prostatitis patients, IM862 with traditional treatment
  good result, number of patients: 26 patients
[7]; IM862 use
  elevated and lowered immune indices upon completion of treatment: a normalization was observed in all the elevated and lowered indices
[7]; [12]
  B-lymphocytes %: 27.24 ± 1.44%
  B-lymphocytes Abs. quantity ×10^9: 0.54 ± 0.10 ×10^9
  Complement units: 29.43 ± 0.53 units
  IgA: 2.20 ± 0.12 g/L
  IgG: 12.52 ± 0.63 g/L
  Imm. complexes units: 0.080 ± 0.004 units
  Phagocytosis %: 39.41 ± 3.51%
  T-lymphocytes %: 44.44 ± 2.34%
  T-lymphocytes Abs. quantity ×10^9: 0.88 ± 0.07 ×10^9
[7]; [13]
  IgG: 14.71 ± 1.42 g/L
  IgM: 3.44 g/L
[7]; initial level elevated n = 2, after treatment
  T-lymphocytes %: 40.0 ± 15.5%
[7]; initial level elevated n = 7, after treatment
  Complement units: 30.7 ± 0.89 units
[7]; initial level elevated n = 8, after treatment
  B-lymphocytes %: 24.8 ± 2.91^x %
[7]; initial level elevated n = 19, after treatment
  Imm. complexes units: 0.08 ± 0.006^x units
[7]; initial level elevated n = 26, after treatment
  Phagocytosis %: 37.7 ± 3.94%
[7]; initial level lowered n = 5, after treatment
  Phagocytosis %: 36.6 ± 8.54^x %
[7]; initial level lowered n = 8, after treatment
  Imm. complexes units: 0.07 ± 0.011 units
[7]; initial level lowered n = 10, after treatment
  B-lymphocytes %: 26.0 ± 2.91^x %
[7]; [14]
  Complement units: 34.2 ± 0.93^x units
  T-lymphocytes %: 37.9 ± 2.24%
[7]; initial level normal n = 3, after treatment
  Phagocytosis %: 58.6 ± 17.98%
[7]; initial level normal n = 7, after treatment
  Imm. complexes units: 0.08 ± 0.006 units
[7]; initial level normal n = 13, after treatment
  Complement units: 29.3 ± 0.88 units
[7]; initial level normal n = 16, after treatment
  B-lymphocytes %: 29.2 ± 2.15%
[7]; initial level normal n = 18, after treatment
  T-lymphocytes %: 50.0 ± 3.57%
[7]; lowered in 2 patients, after treatment
  IgG: 7.80 ± 1.13 g/L
[7]; normal in 33 patients, after treatment
  IgM: 2.08 ± 0.12 g/L
[7]; [15]
  Ig (character image) l: 2.20 ± 0.12
  IgG: 12.51 g/L
